The values below come from patent publication US20090082303A1, “DRUG FOR PREVENTING AND TREATING ATHEROSCLEROSIS” (Takeda Pharmaceutical Company Limited, priority 2004, published 2009).

One series relates to GM3 synthase. Briefly: Effect of shRNA expressing retrovirus on GM3 synthase activity in RAW264.7 strain. The format is cell-based. To be noted: crude enzyme from retrovirus-infected RAW264.7; uninfected RAW264.7 = 1. As for the experimental part: RAW264.7 strain purchased from ATCC (Raschke W C, et al., Cell, Vol. 15, pp. 261-267, 1978) was suspended in 10% FBS-DMEM culture medium to be 1×10^5 cells/ml, and was seeded on 12-well plate at 1 ml/well. After overnight incubation at 37° C. in the presence of 5% CO2, retrovirus, which expressed sequences for shRNA (short hairpin RNA), SHI (SEQ ID NO: 5) or SH3 (SEQ ID NO: 6), was infected to RAW264.7 strain. After overnight culture, the medium was replaced with 10% FBS-DMEM culture medium and the cells were cultured to confluent state. Using these cells, in accordance with the method in EXAMPLE 4, crude enzyme was prepared to assay GM3 synthase activity. Based on the value of the enzyme activity from RAW264.7 strain as 1 (one), the value from the virus-infected cells was calculated as relative value.

For a further series, the system named is RAW264.7 strain. Briefly: Effect of GM3 synthase knock-down on cholesterol efflux from RAW264.7 strain. The format is cell-based. To be noted: [3H] cholesterol efflux to Apolipoprotein A1 20 μg/ml, 6 hours; uninfected RAW264.7 = 1. On the procedure:
RAW264.7 strain infected with the retrovirus that expresses shRNA targeting GM3 synthase was suspended in 10% FBS-DMEM culture medium to be 1.5-2×10^6 cells/ml and was seeded on 12-well plate at 1 mL/well. After overnight culture at 37° C. in the presence of 5% CO2, the cells were washed with PBS. Then, after adding 1% FBS-DMEM culture medium, which contained [^3H] cholesterol-labeled βVLDL (final concentration: 150 μg of total cholesterol/ml), the cells were cultured for overnight. The cells were washed twice with 0.2% BSA-PBS and further washed with PBS. After replacing the medium with 0.1% BSA-DMEM culture medium, the cells were cultivated for one day. After replacing 20 μg/ml of Apolipoprotein A1 containing 0.1% BSA-DMEM culture medium, the cells were cultured for 6 hours. Cultured supernatant was collected, and radioactivity of the supernatant, from which cell debris was removed by centrifugation, was measured with the liquid scintillation counter. […] After incubation at 37° C. for overnight, radioactivity of the cell lysate was measured with the liquid scintillation counter. A ratio of the radioactivity of the culture supernatant to the summation of the radioactivity of the culture supernatant and the cell lysate was calculated. […] Based on the value from RAW264.7 strain as 1 (one), the value from the virus-infected cells was calculated as relative value.

The test system of the next series is mouse GM3 synthase. The series is described as follows: Effect of IFN-γ on expression of mouse GM3 synthase in mouse peritoneal macrophage cells (TaqMan PCR). As to conditions: 24 hours, GAPDH internal standard, ΔΔCt, without IFN-γ = 1. The format is cell-based. On the procedure: In accordance with the method by Hakamada et al. [Jikken-igaku (Experimental Medicine), Supplementary Volume, Vol. 14, No. 12, “Junnkan Kenkyu Protocol (Protocol for study on circulation)”, pp. 49-52, 1996], from C57BL/6j mouse after the intraperitoneal injection of thioglycolate, peritoneal macrophage was prepared. The cells were suspended in 10% FBS-DMEM culture medium to be 1.5-2×10^6 cells/mL, and were seeded on 12-well plate at 1 mL/well. After overnight culture at 37° C. in the presence of 5% CO2, the cells were washed with PBS. The 1% FBS-DMEM culture medium containing mouse recombinant IFN-γ at prescribed concentration was added to the cells, and cultivation was performed for 24 hours.
After washing the cells once with PBS, using RNeasy Mini Kit (QIAGEN) total RNA was prepared. Subsequently, using TaqMan Reverse Transcription Reagents (Applied Biosystems) cDNA was prepared. By TaqMan PCR method Using TaqMan Universal PCR Master Mix (Applied Biosystems), the expression level of GM3 synthase was quantified. As TaqMan probe and primers for mouse GM3 synthase, Assays-on-Demand (Mm00488232_ml) supplied from Applied Biosystems was used.
(§1) In quantification, an expression level of GAPDH was used as internal standard. By ΔΔCt method, relative value was calculated based on the conditions without treatment of IFN-γ as 1 (one).

For series [1], the system named is human GM3 synthase. The series is described as follows: GM3 synthase inhibitor screening (2): Phospholipid FlashPlate, CMP-[14C] sialic acid. The format is biochemical. As to conditions: without CMP = 1. As for the experimental part:
(§2) The cell line stably expressing human GM3 synthase, which was established by transducing human GM3 synthase gene into RAW264.7 strain purchased from ATCC (Raschke W C, et al., Cell, Vol. 15, pp. 261-267, 1978) with retrovirus vector, was cultured in 10% FBS-DMEM culture medium. After culturing to confluent state, the cells were washed once with PBS and harvested. After weighing wet cells, the cells were suspended in 3 (three) volumes of buffer solution (15 mM sodium cacodilate (pH6.5), 5% glycerol). By ultrasonication, the cells were disrupted, and the supernatant, of which cell debris was excluded by centrifugation, was used as a crude enzyme solution. Protein concentration of the crude enzyme solution was determined using BCA protein assay kit(BIO RAD, Inc.).
Coating of lactosylceramide, the substrate for GM3 synthase to Phospholipid FlashPlate (PerkinElmer, Inc.) was carried out by the method as described below. 200 μM lactosylceramide-reaction buffer solution consisting of 100 mM sodium cacodylate (pH6.5) and 10 mM MgCl2 was dispensed on the plate at 200 μl/well and followed by standing at room temperature for overnight. After washing the plate once with PBS, 30 μM lactosylceramide-reaction buffer solution was dispensed at 70 μl/well.
Ten microliter of the crude enzyme solution prepared by the procedure in EXAMPLE 4, 10 μl of CMP solution and 10 μl of 500 μM CMP-[^14C] sialic acid (Amersham; 5×10^4 cpm/well) were admixed and incubated at 37° C. for 3 (three) hours. Radioactivity was measured by Topcount (PerkinElmer, Inc.).
A well, in which buffer solution for cell suspension was added instead of the crude enzyme was used as a blank. A value obtained by subtract the cpm value of blank well from the cpm value of sample well was used as a value for enzyme activity.
Relative value was calculated based on the conditions without treatment of CMP as 1 (one).

Series [2] concerns human GM3 synthase. Briefly: GM3 synthase inhibitor screening (1): BODIPY-lactosylceramide, HPTLC fluorescence. The format is biochemical. As to conditions: 73 without CMP. On the procedure:
as §2
BODIPY-lactosylceramide (Molecular Probes, Inc.) in chloroform solution was dried in Eppendorf tube under nitrogen flow. 4× reaction buffer solution consisting of 400 mM sodium cacodylate (pH6.5), 1.6% Triton X-100, 40 mM MgCl2 and 8 mM 2,3 dehydro-2-deoxy-N-acetylneuraminic acid was added to the tube. After vortexing, it was sufficiently dissolved by ultrasonication for 20 seconds in sonicator bath and was used as a substrate solution.
Ten μl of substrate solution, 10 μl of 800 μM CMP-sialic acid, 10 μl of crude enzyme solution and 10 μl of sample were admixed and followed by incubating at 37° C. for one hour. As a sample, cytidine mono phosphate (CMP), wherein the inhibitory effect to GM3 synthase activity is reported, was used (Biochem. Biophys. Res. Commun., Vol. 193, pp. 585-590, 1993). One milliliter of chloroform/methanol mixture (2:1) was added to the reaction mixture to terminate the reaction. After mixing, ultrasonication was done for 30 minutes in sonicator bath. Supernatant was recovered by centrifugation at 15,000 rpm for 5 minutes. Pellet was further washed with 200 μl of chloroform/methanol mixture (2:1) and recovered its supernatant by centrifugation at 15,000 rpm for 5 minutes. Collected supernatant was dried under nitrogen flow, and residue was re-suspended in 50 μl of chloroform/methanol mixture (2:1). Twenty μl of the supernatant isolated by centrifugation was spotted on HPTLC (Merck, Inc.) and was developed with solvent system consisting of chloroform/methanol/0.2% CaCl2 aqueous solution (50:45:10). After development, fluorescent intensity was measured with LAS-1000 (Fuji Film, Inc.). Fluorescent intensity of both the substrate, BODIPY-lactosylceramide and the product, BODIPY-GM3 was measured, respectively to calculate a ratio of GM3 produced to lactosylceramide added. The activity was calculated as an amount of GM3 (nmol) produced/hour/mg of protein in the crude enzyme solution.
GM3 synthase activity(nmol/mg/hr)=BODIPY-GM3(AU)/(BODIPY-lactosylceramide(AU)+BODIPY-GM3(AU))×10 nmol×1/(protein weight (mg)×reaction time(hr))
AU means a numerical value determined with LAS-1000.

Series [3] deals with human GM3 synthase. The series is described as follows: Effect of IFN-γ on expression of human GM3 synthase in THP-1 cells (TaqMan PCR). It counts as cell-based. To be noted: 24 hours, THP-1 macrophage-like cells, without IFN-γ = 1. On the procedure:
THP-1 cells suspended in RPMI-1640 culture medium containing phorbol 12-myristeate 13-acetate (final concentration: […]), in which 10% FBS, 25 mM HEPES and Penicillin/Streptomycin were comprised, were seeded on 24-well plate at 1.0×10^6 cells/well and treated, for 3 (three) days to differentiate into macrophage-like cells. After washing the cells with PBS, RPMI-1640 culture medium containing human recombinant IFN-γ at a prescribed concentration was added to the cells. Subsequently, the cells were cultured for 24 hours.
As TaqMan probe and primers for human GM3 synthase, Assays-on-Demand (Hs00187405 ml) supplied from Applied Biosystems was used.
as §1
(In qPCR the cycle at which signal appears reflects the starting amount.)

Turning to “SH3: retrovirus expressing shRNA (short hairpin RNA) sequence SEQ ID NO: 6 targeting GM3 synthase (GCCAATGATTTGTTCGTTAGTGTGCTGTCCTAACGAACAAATCATTGGCTTTTT)”, the “GM3 synthase activity (relative value)” value in the series on GM3 synthase turned out to be 0.5. In the series with RAW264.7 strain, the “cholesterol transporting activity (relative value)” value worked out at 1.1.

In the case of “mIFN-γ: mouse recombinant IFN-γ, known as the atherogenic cytokine”, the “Expression (mouse GM3 synthase mRNA, relative value)” value in the series on mouse GM3 synthase (mIFN-γ 1 U/mL) stood at 4; with mouse GM3 synthase (mIFN-γ 10 U/mL), 25.

With “SH1: retrovirus expressing shRNA (short hairpin RNA) sequence SEQ ID NO: 5 targeting GM3 synthase (GAAGACCCAGCTTGTTAATGTGTGCTGTCCATTAACAAGCTGGGTCTTCTTTTT)”, the “GM3 synthase activity (relative value)” value with GM3 synthase was found to be 0.3. Further, the “cholesterol transporting activity (relative value)” value with RAW264.7 strain was found to be 1.3.

`Nc1ccn([C@@H]2O[C@H](COP(=O)(O)O)[C@@H](O)[C@H]2O)c(=O)n1` [CMP, cytidine mono phosphate]: the “GM3 synthase activity (relative value)” value is 1.01 in the series with human GM3 synthase [1] (CMP 0.04 mM); 0.73 in the series with human GM3 synthase [1] (CMP 0.12 mM); 0.58 with human GM3 synthase [1] (CMP 0.4 mM); 0.32 in the series with human GM3 synthase [1] (CMP 1.2 mM); 0.28 in the series on human GM3 synthase [1] (CMP 4 mM). Further, the GM3 synthase activity in the series with human GM3 synthase [2] (CMP 0.1 mM) turned out to be 46 nmol/mg/h; with human GM3 synthase [2] (CMP 0.3 mM), 27 nmol/mg/h; with human GM3 synthase [2] (CMP 1 mM), 12 nmol/mg/h; in the series on human GM3 synthase [2] (CMP 3 mM) it was 5 nmol/mg/h; with human GM3 synthase [2] (CMP 10 mM), 7 nmol/mg/h.

B1: hIFN-γ: human recombinant IFN-γ (protein, UniProt P01579 24-161, looked up)
Interferon gamma: QDPYVKEAENLKKYFNAGHSDVADNGTLFLGILKNWKEESDRKIMQSQIVSFYFKLFKNFKDDQSIQKSVETIKEDMNVKFFNSNKKKRDDFEKLTNYSVTDLNVQRKAIHELIQVMAELSPAAKTGKRKRSQMLFRG
As to B1, the “Expression level (human GM3 synthase mRNA, relative value)” value amounted to 2.6 in the series with human GM3 synthase [3] (hIFN-γ 10 ng/mL) and 2.4 in the series with human GM3 synthase [3] (hIFN-γ 30 ng/mL).
